Broadly, the IC50 is the concentration that gives 50% inhibition. A word on the inhibition: it is the drop in the measured response relative to a control, in per cent.

No end group written: not given here.

Series [1] is described as follows: Study of stability, packed samples stored at 2-8° C. for 6 months. It counts as physicochemical. To be noted: for Conclusion: Character / Conclusion: Moisture / Conclusion: Polymer / Conclusion: Related substances (maximum single impurity) / Conclusion: The purity of chromatographic: up to 6 months. On the procedure:
The samples prepared in example 8 were packed in double-layer medical low-density polyethylene bags and a layer of aluminum-plastic composite bags and stored at 2-8° C. for evaluation at 1, 2, 3 and 6 months respectively.
The samples prepared in example 9 were packed in double-layer medical low-density polyethylene bags and a layer of aluminum-plastic composite bags and stored at 2-8° C. for evaluation at 1, 2, 3 and 6 months respectively.

The target in series [2] is T1, melanocortin receptor 2 (MC2R) (Homo sapiens, UniProt Q01718).
T1 construct: expressed in transfected cells; host or cells: CHO-K1
Kind of series: Activity in vitro: calcium ion signal in CHO-K1 cells expressing MC2R. It counts as cell-based. The following applies: for Binding ability to MC2R and biological activity (in words) / Bottom / HillSlope / Top / EC50: CHO-K1 cells expressing MC2R; for Bottom / HillSlope / Top: curve fit; for Bottom / HillSlope / Top / EC50: calcium ion signal; for EC50: read-out: EC50 (half inhibitory concentration). On the procedure:
ACTH was a receptor agonist of melanocortin receptor 2 (MC2R). The combination of ACTH and MC2R could stimulate the signal pathway of the downstream and change the signal factors such as calcium ions and cAMP. The binding ability of ACTH and MC2R was determined by detecting calcium ion signals, and then the cell activity of ACTH in vitro was judged.
The samples in example 8 and example 10 were taken for activity study in vitro. CHO-K1 cells expressing MC2R were cultured in 10 cm vessels and stored at 37° C. and 5% CO2.

Series [3] deals with infantile spasticity (IS) rat model. Kind of series: Incubation period of spasticity in infantile spasticity (IS) rat model (betamethasone/NMDA). It counts as in vivo, Sprague Dawley (SD) rats. On the procedure: (1) Method: To investigate the effect of SEQ ID NO.4 on the incubation period of spasticity in infantile spasticity (IS) rat model.
Incubation period: Time from NMDA injection to onset of spasticity (time is measured in units of seconds).
Sham group: Sprague Dawley (SD) rats were intraperitoneally injected with saline (10 mL/kg each time) at 9:00 am and 19:00 pm respectively on the 15th day of pregnancy, and the neonatal rats (n=12) were intraperitoneally injected with saline of the same volume as the drug group on the 15th day after birth. Model group (IS group): SD rats were intraperitoneally injected with betamethasone (0.4 mg/kg each time) at 9:00 am and 19:00 pm respectively on the 15th day of pregnancy. The neonatal rats (n=12) were intraperitoneally injected with N-methyl-D-aspartic acid (NMDA, 15 mg/kg) at 15:30 pm on the 15th day after birth to establish infant spasticity (neonatal spasticity) rat model, and the incubation period from NMDA injection to spasticity was recorded. […] After the second injection of SEQ ID NO.4 for 30 minutes (i.e. 15:30 pm), NMDA (15 mg/kg) was intraperitoneally injected to establish infant spasticity rat model, and the incubation period from NMDA injection to spasticity was recorded.

Series [4] has as its target heart receptor protein (hERG) (Homo sapiens, UniProt Q12809). Kind of series: in vitro. The text has this:
(§1) The cardiac […] toxicity of drugs was judged by detecting the affinity between drugs and heart receptor protein (hERG) in vitro.

Series [5] addresses hERG (Homo sapiens, UniProt Q12809). Kind of series: in vitro. To be noted: human.
From the text: as §1

Sequence of heart receptor protein (hERG) (Q12809 whole entry): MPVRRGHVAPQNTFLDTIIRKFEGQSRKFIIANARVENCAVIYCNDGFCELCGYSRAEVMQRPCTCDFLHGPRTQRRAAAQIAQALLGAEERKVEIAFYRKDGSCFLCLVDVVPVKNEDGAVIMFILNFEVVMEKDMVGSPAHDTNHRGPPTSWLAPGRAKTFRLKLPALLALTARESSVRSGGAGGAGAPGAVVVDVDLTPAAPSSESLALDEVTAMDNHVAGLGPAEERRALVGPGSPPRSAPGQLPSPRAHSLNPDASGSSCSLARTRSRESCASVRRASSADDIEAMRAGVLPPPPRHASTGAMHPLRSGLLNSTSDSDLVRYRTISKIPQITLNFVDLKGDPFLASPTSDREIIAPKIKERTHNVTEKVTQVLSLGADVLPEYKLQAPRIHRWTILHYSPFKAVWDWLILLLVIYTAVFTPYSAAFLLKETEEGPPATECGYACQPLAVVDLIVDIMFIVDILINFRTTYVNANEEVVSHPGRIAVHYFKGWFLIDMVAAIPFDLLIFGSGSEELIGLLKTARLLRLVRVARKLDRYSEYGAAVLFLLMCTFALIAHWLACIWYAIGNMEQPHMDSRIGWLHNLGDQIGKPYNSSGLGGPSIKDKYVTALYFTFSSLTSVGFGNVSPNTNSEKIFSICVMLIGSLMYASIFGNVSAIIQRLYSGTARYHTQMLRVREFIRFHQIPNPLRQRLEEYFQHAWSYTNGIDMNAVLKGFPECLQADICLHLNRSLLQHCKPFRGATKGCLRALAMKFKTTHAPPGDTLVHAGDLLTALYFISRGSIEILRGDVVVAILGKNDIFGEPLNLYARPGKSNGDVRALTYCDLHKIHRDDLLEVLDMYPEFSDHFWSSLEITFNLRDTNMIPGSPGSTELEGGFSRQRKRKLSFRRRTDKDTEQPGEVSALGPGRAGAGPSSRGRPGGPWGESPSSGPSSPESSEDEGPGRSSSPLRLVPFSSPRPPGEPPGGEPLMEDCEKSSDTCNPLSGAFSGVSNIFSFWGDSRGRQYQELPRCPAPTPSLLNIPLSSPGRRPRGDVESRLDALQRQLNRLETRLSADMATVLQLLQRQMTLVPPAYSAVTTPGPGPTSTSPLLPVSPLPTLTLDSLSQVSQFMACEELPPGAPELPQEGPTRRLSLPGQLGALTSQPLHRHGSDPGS
T1 sequence (Q01718 whole entry, species assumed): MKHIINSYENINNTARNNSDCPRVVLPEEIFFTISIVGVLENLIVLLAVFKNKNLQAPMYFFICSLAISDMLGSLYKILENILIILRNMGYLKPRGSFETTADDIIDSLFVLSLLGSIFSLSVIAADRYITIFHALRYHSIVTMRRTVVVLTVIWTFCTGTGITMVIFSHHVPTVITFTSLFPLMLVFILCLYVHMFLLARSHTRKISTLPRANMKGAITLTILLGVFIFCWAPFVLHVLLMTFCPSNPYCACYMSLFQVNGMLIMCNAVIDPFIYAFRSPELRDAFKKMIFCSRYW
T1 sequence (Q8TCY5 whole entry partner, species assumed): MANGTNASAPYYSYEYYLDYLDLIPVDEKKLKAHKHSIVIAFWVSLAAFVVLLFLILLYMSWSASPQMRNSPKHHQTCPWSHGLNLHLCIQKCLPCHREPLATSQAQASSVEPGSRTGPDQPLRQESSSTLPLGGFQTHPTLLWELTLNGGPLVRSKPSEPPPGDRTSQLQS
Sequence of hERG (Q12809 whole entry): as the sequence (Q12809 whole entry) above

For “H-SYSMEHFRWGKPVGKKRRPVKVYPNGAEDESAEAFPLEF-OH [Example 8]”, in series [1] (2-8° C., 1 month), the “Character (Visual)” value is reported as “White”; the “Moisture, Karl Fischer” value turned out to be 7.3%; the “Polymer (impurity with molecular weight greater than the peptide), HPLC” value (from here on “Polymer … HPLC”) worked out at 0.05%; the “Related substances (maximum single impurity), HPLC” value turned out to be 0.17%. Also, in series [1] (2-8° C., 1 month), the “Related substances (total impurities), HPLC” value came out at 0.29% and the “The purity of chromatographic, HPLC” value stood at 99.71%. Further, in series [1] (2-8° C., 2 months), the “Character (Visual)” value is reported as “White”; the “Moisture, Karl Fischer” value was found to be 7.5%; the “Polymer … HPLC” value was found to be 0.03%; the “Related substances (maximum single impurity), HPLC” value was determined as 0.17%. Besides, in series [1] (2-8° C., 2 months), the “Related substances (total impurities), HPLC” value is 0.29% and the “The purity of chromatographic, HPLC” value worked out at 99.71%. Besides, in series [1] (2-8° C., 3 months), the “Character (Visual)” value was “White”; the “Moisture, Karl Fischer” value was determined as 8.4%; the “Polymer … HPLC” value amounted to 0.06%; the “Related substances (maximum single impurity), HPLC” value was 0.16%. In series [1] (2-8° C., 3 months), the “Related substances (total impurities), HPLC” value is on record as 0.38% and the “The purity of chromatographic, HPLC” value came to 99.62%. Further, in series [1] (2-8° C., 6 months), the “Character (Visual)” value is listed as “White”; the “Moisture, Karl Fischer” value was determined as 8.3%; the “Polymer … HPLC” value came out at 0.04%; the “Related substances (maximum single impurity), HPLC” value came out at 0.11%. Further, in series [1] (2-8° C., 6 months), the “Related substances (total impurities), HPLC” value is 0.39% and the “The purity of chromatographic, HPLC” value stood at 99.61%. Moreover, in series [1] (2-8° C.), the “Conclusion: Character” value was “Qualified”, the “Conclusion: Moisture” value was “Qualified”, the “Conclusion: Polymer” value was “Qualified” and the “Conclusion: Related substances (maximum single impurity)” value is given as “Qualified”. Also, the “Conclusion: The purity of chromatographic” value in series [1] (2-8° C.) is given as “Qualified”. For the same substance, in series [1] (Start), the “Character (Visual)” value was “White”; the “Moisture, Karl Fischer” value is on record as 5.0%; the “Polymer … HPLC” value was determined as 0.03%; the “Related substances (maximum single impurity), HPLC” value was 0.07%. For the same substance, in series [1] (Start), the “Related substances (total impurities), HPLC” value amounted to 0.13% and the “The purity of chromatographic, HPLC” value is recorded as 99.88%. In series [2], the “Binding ability to MC2R and biological activity (in words)” value is “had binding ability to melanocortin receptor 2 (MC2R) and showed biological activity”; the Bottom is on record as −2.739; the HillSlope amounted to 0.9745; the Top is on record as 100.9. In addition, the “Activity of high-purity ACTH relative to low-purity ACTH” value in series [2] (ratio of EC50 values) was 1.6 times.

For the substance “H-SYSMEHFRWGKPVGKKRRPVKVYPNGAEDESAEAFPLEF-OH [Example 10, reference compound]”, in series [2], the “Binding ability to MC2R and biological activity (in words)” value was “had binding ability to melanocortin receptor 2 (MC2R) and showed biological activity”; the Bottom is on record as −1.846; the HillSlope was 1.249; the Top is 94.88.

For the substance “SYSMEHFRWGKPVGKKRRPVKVYPDGAEDESAEAFPLEF (also: deamidated at N25 (given as D), Asp or isoAsp not given here) [Example 9]”, the “Incubation period of spasticity vs IS group” value in series [3] (high-dose group 0.28 U/g i.p. twice, neonatal rats day 15, P<0.0001) was “significantly prolong”. Also, the “Incubation period of spasticity vs IS group” value in series [3] (low-dose group 0.01 U/g i.p. twice, neonatal rats day 15, p<0.001) is reported as “significantly prolong”. In addition, in series [1] (2-8° C., 1 month), the “Character (Visual)” value is given as “White”; the “Moisture, Karl Fischer” value turned out to be 7.5%; the “Polymer … HPLC” value amounted to 0.04%; the “Related substances (maximum single impurity), HPLC” value was determined as 0.24%. Moreover, in series [1] (2-8° C., 1 month), the “Related substances (total impurities), HPLC” value amounted to 0.42% and the “The purity of chromatographic, HPLC” value was 99.58%. Further, in series [1] (2-8° C., 2 months), the “Character (Visual)” value is listed as “White”; the “Moisture, Karl Fischer” value is reported as 7.6%; the “Polymer … HPLC” value was 0.05%; the “Related substances (maximum single impurity), HPLC” value came to 0.17%. In addition, in series [1] (2-8° C., 2 months), the “Related substances (total impurities), HPLC” value amounted to 0.43% and the “The purity of chromatographic, HPLC” value worked out at 99.57%. In addition, in series [1] (2-8° C., 3 months), the “Character (Visual)” value was “White”; the “Moisture, Karl Fischer” value was determined as 8.5%; the “Polymer … HPLC” value is 0.06%; the “Related substances (maximum single impurity), HPLC” value worked out at 0.27%. For the same substance, in series [1] (2-8° C., 3 months), the “Related substances (total impurities), HPLC” value came to 0.46% and the “The purity of chromatographic, HPLC” value is on record as 99.54%. In series [1] (2-8° C., 6 months), the “Character (Visual)” value is listed as “White”; the “Moisture, Karl Fischer” value is 8.6%; the “Polymer … HPLC” value worked out at 0.06%; the “Related substances (maximum single impurity), HPLC” value is 0.10%. For the same substance, in series [1] (2-8° C., 6 months), the “Related substances (total impurities), HPLC” value came to 0.49%; the “Stability under the storage condition (in words)” value is reported as “stable”; the “The purity of chromatographic, HPLC” value is reported as 99.51%. Moreover, in series [1] (2-8° C.), the “Conclusion: Character” value is “Qualified”, the “Conclusion: Moisture” value is listed as “Qualified”, the “Conclusion: Polymer” value is on record as “Qualified” and the “Conclusion: Related substances (maximum single impurity)” value is “Qualified”. Besides, the “Conclusion: The purity of chromatographic” value in series [1] (2-8° C.) is reported as “Qualified”. Moreover, in series [1] (Start), the “Character (Visual)” value is “White”; the “Moisture, Karl Fischer” value was found to be 5.2%; the “Polymer … HPLC” value is listed as 0.03%; the “Related substances (maximum single impurity), HPLC” value is on record as 0.16%. Further, in series [1] (Start), the “Related substances (total impurities), HPLC” value stood at 0.42% and the “The purity of chromatographic, HPLC” value is listed as 99.58%.

As to “SYSMEHFRWGKPVGKKRRPVKVYPNGAEDESAEAFPLEF [Example 8]”, in series [4], the “Cardiac metabolic toxicity (in words)” value is listed as “no cardiac metabolic toxicity” and the IC50 was more than 10000 nM. The inhibition at 10000 nM in series [5] was -1.28%. The “Stability under the storage condition (in words)” value in series [1] (2-8° C., 6 months) was “stable”. In addition, the EC50 in series [2] was found to be 180 nM.

“SYSMEHFRWGKPVGKKRRPVKVYPNGAEDESAEAFPLEF [Example 10, reference compound]”: the “Cardiac metabolic toxicity (in words)” value in series [4] is on record as “no cardiac metabolic toxicity”. In addition, the EC50 in series [2] was 288 nM.

Source of the values: patent publication US12433936B2, “High-purity adrenocorticotropic hormone analogue and a large-scale preparation method thereof” (Nanjing Hanxin Pharmaceutical Technology Co., Ltd., priority 2021, dated 2025).
